# Like-named read-outs stand apart in the source and are kept apart here.
# Tests used:
# Format in all cases: cell-based
# A549 cells = test: SRB assay, lung cancer cells A549
# Method: (§1) As a comparison, omeprazole (KN510) and trimetazidine (KN713), a 3-ketoacyl CoA thiolase inhibitor, were co-treated. […] After cell inoculation, 96-well cell culture plates were incubated for 24 hours before the addition of experimental drugs. […] The cells were then incubated in a CO2 incubator for 48 hours, after which the assay was terminated by the addition of cold TCA. Cells were fixed in situ by gently adding 50 μl of cold 50% (w/v) TCA (final concentration: 10% TCA) and incubated at 4° C. for 60 min. The supernatant was discarded, and the plate was washed five times with distilled water and air dried. Sulforhodamine B (SRB) solution (100 μl) of 0.4% (w/v) in 1% acetic acid was added to each well, and the plate was left at room temperature for 10 min. After staining, unbound dye was removed by washing five times with 1% acetic acid, and the plate was air-dried. The bound dye was then solubilized with 10 mM trizma base, and the absorbance was recorded at 515 nm using an automated plate reader. […] The predicted synergistic activity of a combination of the present invention can be calculated using the Colby Equation in Equation 1 (S.R. Colby, Weeds, 1967, pp. 15, 20-22): In the present invention, the actual measure of anti-cancer activity of the combination treatment was the inhibition rate of cancer cell growth (%), and the predicted value (E) of the combination treatment was measured by substituting it into the above Colby Equation.
# SK-MEL-5 = test: SRB assay, melanoma cell line SK-MEL-5
# Method: as §1
# MDA-MB-231 cells = test: SRB assay, breast cancer cell line MDA-MB-231
# Method: as §1
# PC-3 cells = test: SRB assay, prostate cancer cells PC-3
# Method: as §1
# CAKI-1 cells = test: SRB assay, renal cell carcinoma cell line CAKI-1
# Method: as §1
# AGS cells = test: SRB assay, stomach cancer cell line AGS
# Method: as §1
# PANC-1 cells = test: SRB assay, pancreatic cancer cell line PANC-1
# Method: as §1
# MKN-28 cells = test: SRB assay, stomach cancer cell line MKN-28
# Method: as §1
# SF295 cells = test: SRB assay, glioblastoma cell line SF295
# Method: as §1
# K562 cells = test: SRB assay, leukemia cell line K562
# Method: as §1
# MIA PaCa-2 = test: SRB assay, cancer cell growth, pancreatic cancer cell line MIA PaCa-2; conditions: for inhibition at 5 µM / inhibition at 10 µM: read-out: Inhibition rate of cancer cell growth (%) (Actual value)
# Method: as §1, with “20-22): α and β are the measured anti-cancer activity of each compound alone, and E is the predicted anti-cancer activity of a mixture of α and β as a prediction.” for “20-22):”
# SK-OV-3 cells = test: SRB assay, ovarian cancer cells SK-OV-3
# Method: as §1
# HCT-116 cells = test: SRB assay, colon cancer cell line HCT-116
# Method: as §1
# Hep-3B cells = test: SRB assay, liver cancer cell line Hep-3B
# Method: as §1
# [1] = Homo sapiens, KN714 5 μM, read-out: Inhibition rate of cancer cell growth (%) (Actual value)
# [2] = Homo sapiens, KN714 10 μM, read-out: Inhibition rate of cancer cell growth (%) (Actual value)
structure (smiles),measurement,setting,value
"CSc1ccc2c(c1)N(CCC1CCCCN1C)c1ccccc1S2 (stereo not shown) [KN714, 10-[2-(1-methyl-2-piperidyl)ethyl]-2-(methylthio)phenothiazine]",inhibition at 5 µM,A549 cells; [1],2.15%
same,inhibition at 10 µM,A549 cells; [2],35.4%
same,Cancer cell growth rate Average (%),A549 cells; KN714 5 μM,97.85%
same,Cancer cell growth rate Average (%),A549 cells; KN714 10 μM,64.57%
same,inhibition at 5 µM,SK-MEL-5; [1],19.3%
same,inhibition at 10 µM,SK-MEL-5; [2],124%
same,Cancer cell growth rate Average (%),SK-MEL-5; KN714 5 μM,80.69%
same,Cancer cell growth rate Average (%),SK-MEL-5; KN714 10 μM,−23.56%
same,inhibition at 5 µM,MDA-MB-231 cells; [1],9.36%
same,inhibition at 10 µM,MDA-MB-231 cells; [2],29.8%
same,Cancer cell growth rate Average (%),MDA-MB-231 cells; KN714 5 μM,90.64%
same,Cancer cell growth rate Average (%),MDA-MB-231 cells; KN714 10 μM,70.20%
same,inhibition at 5 µM,PC-3 cells; [1],18.1%
same,inhibition at 10 µM,PC-3 cells; [2],53%
same,Cancer cell growth rate Average (%),PC-3 cells; KN714 5 μM,81.94%
same,Cancer cell growth rate Average (%),PC-3 cells; KN714 10 μM,47.00%
same,inhibition at 5 µM,CAKI-1 cells; [1],24%
same,inhibition at 10 µM,CAKI-1 cells; [2],49.4%
same,Cancer cell growth rate Average (%),CAKI-1 cells; KN714 5 μM,75.99%
same,Cancer cell growth rate Average (%),CAKI-1 cells; KN714 10 μM,50.59%
same,inhibition at 5 µM,AGS cells; [1],32.9%
same,inhibition at 10 µM,AGS cells; [2],84.5%
same,Cancer cell growth rate Average (%),AGS cells; KN714 5 μM,67.13%
same,Cancer cell growth rate Average (%),AGS cells; KN714 10 μM,15.46%
same,inhibition at 5 µM,PANC-1 cells; [1],10.2%
same,inhibition at 10 µM,PANC-1 cells; [2],70%
same,Cancer cell growth rate Average (%),PANC-1 cells; KN714 5 μM,89.85%
same,Cancer cell growth rate Average (%),PANC-1 cells; KN714 10 μM,30.04%
same,inhibition at 5 µM,MKN-28 cells; [1],8.19%
same,inhibition at 10 µM,MKN-28 cells; [2],64%
same,Cancer cell growth rate Average (%),MKN-28 cells; KN714 5 μM,91.81%
same,Cancer cell growth rate Average (%),MKN-28 cells; KN714 10 μM,36.04%
same,inhibition at 5 µM,"SF295 cells; Homo sapiens, SF-295, KN714 5 μM, read-out: Inhibition rate of cancer cell growth (%) (Actual value)",16.5%
same,inhibition at 10 µM,"SF295 cells; Homo sapiens, SF-295, KN714 10 μM, read-out: Inhibition rate of cancer cell growth (%) (Actual value)",75.5%
same,Cancer cell growth rate Average (%),SF295 cells; KN714 5 μM,83.54%
same,Cancer cell growth rate Average (%),SF295 cells; KN714 10 μM,24.47%
same,inhibition at 5 µM,K562 cells; [1],57.8%
same,inhibition at 10 µM,K562 cells; [2],102%
same,Cancer cell growth rate Average (%),K562 cells; KN714 5 μM,42.25%
same,Cancer cell growth rate Average (%),K562 cells; KN714 10 μM,−1.56%
same,inhibition at 5 µM,"MIA PaCa-2; Homo sapiens, MIA PaCa-2, MIA PaCa-2 (Example 11), KN714 5 μM",23.4%
same,inhibition at 10 µM,"MIA PaCa-2; Homo sapiens, MIA PaCa-2, MIA PaCa-2 (Example 11), KN714 10 μM",106%
same,inhibition at 5 µM,"MIA PaCa-2; Homo sapiens, MIA PaCa-2, MIA PaCa-2, Example 1-3, Table 4, KN714 5 μM",31.4%
same,inhibition at 10 µM,"MIA PaCa-2; Homo sapiens, MIA PaCa-2, MIA PaCa-2, Example 1-3, Table 4, KN714 10 μM",105%
same,GI50,"MIA PaCa-2; Homo sapiens, MIA PaCa-2, 48 hours, read-out: GI50 (Half maximal growth inhibition concentration)",1900 nM
same,Cancer cell growth rate Average (%),"MIA PaCa-2; MIA PaCa-2 (Example 11), KN714 5 μM",76.62%
same,Cancer cell growth rate Average (%),"MIA PaCa-2; MIA PaCa-2 (Example 11), KN714 10 μM",−5.93%
same,Cancer cell growth rate Average (%),"MIA PaCa-2; MIA PaCa-2, Conc. 10^−5M, Table 1",−10.55%
same,Cancer cell growth rate Average (%),"MIA PaCa-2; MIA PaCa-2, Conc. 10^−6M, Table 1",94.73%
same,Cancer cell growth rate Average (%),"MIA PaCa-2; MIA PaCa-2, Conc. 10^−7M, Table 1",95.13%
same,Cancer cell growth rate Average (%),"MIA PaCa-2; MIA PaCa-2, Conc. 10^−8M, Table 1",90.56%
same,Cancer cell growth rate Average (%),"MIA PaCa-2; MIA PaCa-2, Conc. 10^−9M, Table 1",97.03%
same,Cancer cell growth rate Average (%),"MIA PaCa-2; MIA PaCa-2, Conc. 10^−10M, Table 1",97.11%
same,Cancer cell growth rate Average (%),"MIA PaCa-2; MIA PaCa-2, Example 1-2, Table 2, KN714 5 μM",68.62%
same,Cancer cell growth rate Average (%),"MIA PaCa-2; MIA PaCa-2, Example 1-2, Table 2, KN714 10 μM",−5.25%
same,inhibition at 5 µM,SK-OV-3 cells; [1],7.82%
same,inhibition at 10 µM,SK-OV-3 cells; [2],37.6%
same,Cancer cell growth rate Average (%),SK-OV-3 cells; KN714 5 μM,92.18%
same,Cancer cell growth rate Average (%),SK-OV-3 cells; KN714 10 μM,62.36%
same,inhibition at 5 µM,HCT-116 cells; [1],7.99%
same,inhibition at 10 µM,HCT-116 cells; [2],32.2%
same,Cancer cell growth rate Average (%),HCT-116 cells; KN714 5 μM,92.01%
same,Cancer cell growth rate Average (%),HCT-116 cells; KN714 10 μM,67.80%
same,inhibition at 5 µM,"Hep-3B cells; Homo sapiens, Hep3B, KN714 5 μM, read-out: Inhibition rate of cancer cell growth (%) (Actual value)",6.06%
same,inhibition at 10 µM,"Hep-3B cells; Homo sapiens, Hep3B, KN714 10 μM, read-out: Inhibition rate of cancer cell growth (%) (Actual value)",29.9%
same,Cancer cell growth rate Average (%),Hep-3B cells; KN714 5 μM,93.94%
same,Cancer cell growth rate Average (%),Hep-3B cells; KN714 10 μM,70.15%

# Source: patent publication US20250170140A1, “PHARMACEUTICAL COMPOSITION FOR PREVENTING OR TREATING CANCER COMPRISING CARNITINE ACYLCARNITINE CARRIER INHIBITOR AND PEROXISOMAL BETA OXIDATION INHIBITOR” (priority 2021, published 2025)
